# Source: paper PMC4991483 (Oncotarget, 2016)
# “Also recorded” adds a separate entry of the source.
# Experiments:
# STAT3 = conditions: cited from earlier work
# MDA-MB-231 cells = assay: Live cell dosing of MDA-MB-231 cells, fluorescent protein labeling (SDS-PAGE); format: cell-based; conditions: 0, 50, 100, 200 μM, 6 h, 37°C
# Procedure: (§1) To investigate the reactivity of 4a in cell lysates, 5 × 10^6 MDA-MB-231 cells were lysed with 200 μL RIPA buffer (Sigma-Aldrich). Lysates were treated with 0-500 μM of compound for 16 h at 4°C and subjected to 4-20% SDS-PAGE. To investigate the in cellulo activity 2 × 10^6 MDA-MB-231 cells were seeded in […] dishes. The following day cells were treated with 0-200 μM of 4a at 37°C, 5% CO2 for 6 h. Cells were lysed using 200 μL RIPA buffer (Sigma-Aldrich) and the lysates were subjected to 4-20% SDS-PAGE. Gels were visualized using the Chemi-Doc MP system. (BIO-RAD). Total protein levels were visualized using Coomassie Brilliant Blue stain. An identical protocol was performed for 4b for direct comparison with 4a.
# purified STAT3 [1] = molecular target: T1, purified STAT3 (Homo sapiens, UniProt P40763); assay: Gel-based STAT protein isoform labeling, STAT3; format: biochemical; conditions: 100 μM, 16 h, 4°C
# Procedure: (§2) 1.0 μg of purified STAT3, STAT5, and STAT1 (SignalChem) were incubated with 100 uM of 4a for 16 h at 4°C. Samples were subjected to 4-20% SDS-PAGE and imaged using the Chemi-Doc MP (BIO-RAD).
# MDA-MB-231 cell lysates = assay: Fluorescent labeling of MDA-MB-231 whole cell lysates (SDS-PAGE); format: biochemical; conditions: for fluorescent labeling of protein content of cell lysates, O-tosyl vs sulfonamide probe: 100 μM
# Procedure: as §1
# [2] = tested on: pSTAT3 in MDA-MB-231 cells; assay: Immunoblotting for activated pSTAT3 levels in MDA-MB-231 cells; format: cell-based; conditions: increasing concentrations
# Procedure: as §1
# Lysates were reduced, boiled, subjected to 4-20% SDS-PAGE and transferred to LF-PVDF membranes. Membranes were blocked with 3% BSA and incubated with pSTAT3 (Abcam ab76315), STAT3 (Cell Signaling 4904) or B-Actin (Cell signaling 3700) at 4°C overnight. Membranes were then probed with either anti-mouse IgG Alexa Flour 488 (Cell Signaling 4408) or anti-rabbit IgG Alexa Fluor 647 (Cell Signaling 4414) for 1 h at room temperature. Membranes were visualized using the Chemi-Doc MP System (BIO-RAD).
# purified STAT3 [3] = molecular target: T1, purified STAT3; assay: In vitro kinetic labeling of purified STAT3 protein by fluorescent probe (SDS-PAGE fluorescence); format: biochemical; conditions: 100 μM, 0-4 h, 4°C
# Procedure: 1 μg of purified STAT3 (SignalChem) protein was incubated with 100 μM 4a at 4°C. At the indicated time points the reaction was quenched with Laemmli loading buffer containing 1.43 M β-mercaptoethanol. Quenched samples were then subjected to 4-20% SDS-PAGE and imaged using the Chemi-Doc MP system (BIO-RAD). Following gel quantification (Image Lab software, BIO-RAD) the data points were plotted and visualized by GraphPad PRISM software.
# purified STAT1 = molecular target: T2, purified STAT1 (Homo sapiens, UniProt P42224); assay: Gel-based STAT protein isoform labeling, STAT1; format: biochemical; conditions: 100 μM, 16 h, 4°C
# T2 construct: GST; purchased SignalChem S52-54G
# T2 sequence (P42224 1-712 isoform P42224-2): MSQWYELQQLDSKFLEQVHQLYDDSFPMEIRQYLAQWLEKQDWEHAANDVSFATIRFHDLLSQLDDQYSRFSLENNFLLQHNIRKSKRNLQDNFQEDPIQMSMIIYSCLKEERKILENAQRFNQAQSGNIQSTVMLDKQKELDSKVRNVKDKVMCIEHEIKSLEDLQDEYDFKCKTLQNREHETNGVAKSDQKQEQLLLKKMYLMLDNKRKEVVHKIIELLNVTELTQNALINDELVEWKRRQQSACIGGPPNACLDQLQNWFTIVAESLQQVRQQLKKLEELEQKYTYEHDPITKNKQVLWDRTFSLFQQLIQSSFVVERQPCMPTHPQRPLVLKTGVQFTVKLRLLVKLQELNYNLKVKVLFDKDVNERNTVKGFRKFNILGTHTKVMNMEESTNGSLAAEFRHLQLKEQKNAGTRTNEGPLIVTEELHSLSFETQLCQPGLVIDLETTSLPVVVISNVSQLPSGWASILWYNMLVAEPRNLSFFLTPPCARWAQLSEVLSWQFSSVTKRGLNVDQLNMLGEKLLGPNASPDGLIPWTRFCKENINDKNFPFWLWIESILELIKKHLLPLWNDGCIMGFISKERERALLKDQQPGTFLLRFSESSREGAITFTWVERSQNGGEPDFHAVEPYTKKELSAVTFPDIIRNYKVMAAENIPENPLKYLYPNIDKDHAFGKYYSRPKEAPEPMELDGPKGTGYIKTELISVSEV
# Procedure: as §2
# purified STAT5 = molecular target: T3, purified STAT5 (Homo sapiens, UniProt P42229); assay: Gel-based STAT protein isoform labeling, STAT5; format: biochemical; conditions: 100 μM, 16 h, 4°C
# T3 construct: His; purchased SignalChem S56-54H
# T3 sequence (P42229 1-794): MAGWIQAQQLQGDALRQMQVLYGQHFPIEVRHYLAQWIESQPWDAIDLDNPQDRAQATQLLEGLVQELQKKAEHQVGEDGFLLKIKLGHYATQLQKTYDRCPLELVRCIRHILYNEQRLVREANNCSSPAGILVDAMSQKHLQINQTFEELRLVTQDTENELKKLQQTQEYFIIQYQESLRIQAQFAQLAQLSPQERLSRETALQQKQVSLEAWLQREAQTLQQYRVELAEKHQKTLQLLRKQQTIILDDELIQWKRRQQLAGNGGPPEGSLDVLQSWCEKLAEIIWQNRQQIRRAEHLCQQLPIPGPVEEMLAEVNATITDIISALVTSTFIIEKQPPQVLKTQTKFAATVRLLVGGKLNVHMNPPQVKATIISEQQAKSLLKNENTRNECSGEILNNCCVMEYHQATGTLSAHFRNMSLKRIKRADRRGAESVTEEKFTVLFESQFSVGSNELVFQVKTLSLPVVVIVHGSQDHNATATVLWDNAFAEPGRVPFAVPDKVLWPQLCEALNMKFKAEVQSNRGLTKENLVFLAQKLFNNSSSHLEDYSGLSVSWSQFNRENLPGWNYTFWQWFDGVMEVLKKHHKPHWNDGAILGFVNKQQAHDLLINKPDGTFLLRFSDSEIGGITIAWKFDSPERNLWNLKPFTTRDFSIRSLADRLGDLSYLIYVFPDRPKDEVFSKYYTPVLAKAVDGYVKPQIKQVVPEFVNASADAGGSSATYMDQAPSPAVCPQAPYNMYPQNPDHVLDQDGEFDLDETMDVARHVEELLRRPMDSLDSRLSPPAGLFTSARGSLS
# Procedure: as §2
# [4] = HPLC-based glutathione (GSH) reactivity / chemical stability assay, 10 mM GSH with TCEP-HCl; conditions: 100 μM compound; for K (kobs), one phase decay / Tau, one phase decay: 10 mM TCEP-HCl, 50 mM HEPES pH 7.4; for reactivity with GSH: 10 h timescale
# Procedure: (§3) From 10 mM compound stock solutions in DMSO 10 μL aliquots were transferred to an analytical HPLC vial containing 990 μL of reaction buffer (10.0 mM reduced GSH, 10.0 mM tris(2-carboxyethyl)phosphine hydrochloride (TCEP-HCl) and 50 mM HEPES buffered to pH 7.4) directly preceding 40.0 μL injections continued over a periodic time course. The process was automated by a Hewlett Packard Series 1100 analytical HPLC system fitted with an Agilent ZORBAX 3.5 μm Eclipse XDB-C18 column (23.0–24.0°C) under a linear elution gradient from H2O (double distilled and de-ionized to 18.2 MΩ cm) with 0.10 v/v % TFA to 100% HPLC grade CH3CN over 8.00 min followed by 2.00 min of sustained CH3CN under a 1.200 mL min^−1 flow rate. […] The data, measured in three replicates was fit to a one-phase exponential decay model (GraphPad PRISM) and kinetic parameters extracted from (1).
# (1) A(t)=(A0−A∞)e^−kobs^t+A∞
# [5] = molecular target: recombinant, full-length STAT3 (Homo sapiens, UniProt P40763); assay: Incubation of recombinant full-length STAT3 with S3I-201, tryptic digestion and LC-MS/MS; conditions: 500 μM S3I-201 (80-fold molar excess), 1 h, 37°C
# Procedure: The incubation was then quenched by the addition of dithiothreitol (DTT) to a final concentration of 0.5 mM and incubation at 55°C for 30 min. Free sulfhydryl groups were alkylated with 2-iodoacetamide (Sigma) at a final concentration of 1.5 mM for 45 min at room temperature. The samples were subjected to trypsin (Promega) digestion (0.5 μg of trypsin per reaction), lyophilized, re-suspended in 0.1% formic acid, and desalted using ZipTip C18 (EMD Millipore) prior to analysis. Samples were analyzed by LC-MS/MS on a nanoLC ultra HPLC system (Eksigent) coupled to a Thermo Scientific Orbitrap-Elite.
# The aqueous and organic mobile phases consisted of 0.1% formic acid in water or CH3CN respectively. Organic mobile phase composition was varied over each hour long LC-MS/MS analysis as follows: 2% from 0 to 1 min, 10% to 35% from 1 to 35 min, 80% from 35.5 to 44.5 min, 2% from 45 to 60 min.
# activated STAT3 dimer = tested on: activated STAT3 dimer; parameters: method as in PMID 21618433; conditions: STAT3 EMSA assay; read-out: inhibition of activated STAT3 dimerization; cited from earlier work
# STAT3:DNA binding = conditions: approximate, reported value; read-out: approximate IC50 for the disruption of STAT3:DNA binding; cited from earlier work
# glutathione (GSH) = assay: physchem; conditions: HEPES buffer with reduced glutathione (GSH) and TCEP-HCl, pH 7.4
# Procedure: as §3
# (1) A(t)=(A0−A∞)e^−kobs^t+A∞
# recombinant, full-length STAT3, sequence (P40763 whole entry): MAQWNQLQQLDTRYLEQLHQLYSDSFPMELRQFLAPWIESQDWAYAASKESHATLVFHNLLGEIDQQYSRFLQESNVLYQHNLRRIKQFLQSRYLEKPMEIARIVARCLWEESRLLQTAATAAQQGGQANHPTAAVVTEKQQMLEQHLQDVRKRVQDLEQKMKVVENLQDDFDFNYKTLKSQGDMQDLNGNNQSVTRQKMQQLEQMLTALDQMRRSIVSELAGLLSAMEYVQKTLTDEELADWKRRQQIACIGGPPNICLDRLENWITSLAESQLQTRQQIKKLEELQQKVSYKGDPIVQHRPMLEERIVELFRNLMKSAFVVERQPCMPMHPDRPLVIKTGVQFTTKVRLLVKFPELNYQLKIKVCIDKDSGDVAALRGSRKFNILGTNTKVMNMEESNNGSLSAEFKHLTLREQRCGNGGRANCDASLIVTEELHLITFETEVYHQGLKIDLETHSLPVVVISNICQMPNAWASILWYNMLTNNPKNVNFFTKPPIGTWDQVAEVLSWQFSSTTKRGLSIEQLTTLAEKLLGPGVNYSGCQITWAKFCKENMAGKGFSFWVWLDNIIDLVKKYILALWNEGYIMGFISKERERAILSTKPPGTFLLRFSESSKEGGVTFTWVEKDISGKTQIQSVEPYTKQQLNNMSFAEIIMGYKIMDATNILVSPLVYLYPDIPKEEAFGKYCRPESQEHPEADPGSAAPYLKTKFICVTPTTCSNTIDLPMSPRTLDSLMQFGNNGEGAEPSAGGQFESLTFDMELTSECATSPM
# T1 sequence (P40763 whole entry, canonical isoform): as the sequence (P40763 whole entry) above
reactivity with GSH [4],half-life at 100 μM (glutathione (GSH)) [h],Compound,"K (kobs), one phase decay [4]","Tau, one phase decay [4]",further results
,,O=[N+]([O-])c1ccc2c(c1)S(=O)(=O)C=C2 [Stattic],,,"cysteine residues of STAT3 modified (STAT3): Cys251, 259, 367, and 426"
,,Cc1ccc(S(=O)(=O)OCC(=O)N(Cc2cn(CCOCCOCCOCCNS(=O)(=O)c3cccc4c(N(C)C)cccc34)nn2)c2ccc(C(=O)O)c(O)c2)cc1 [4a],,,"fluorescent labeling of intracellular proteins in whole cells (MDA-MB-231 cells): increasing levels of fluorescent intensities following the dose of reporter; fluorescent labeling of intracellular proteins in whole cells (MDA-MB-231 cells; listed as DB-6-055): non-specifically and globally alkylated intracellular proteins; fluorescent labeling of purified STAT3 (purified STAT3 [1]): non-specific fluorescent labeling of all three STAT isoforms; fluorescent labeling of protein content of cell lysates (MDA-MB-231 cell lysates; 0, 100, 250, 500 μM, 16 h, 4°C): pronounced, non-specific, global labeling of the protein content; fluorescent labeling of protein content of cell lysates, O-tosyl vs sulfonamide probe (MDA-MB-231 cell lysates): promiscuously modified; pSTAT3 levels (immunoblot) [2]: dose-dependent decrease in pSTAT3 levels; fluorescent labeling of purified STAT3 over time course (purified STAT3 [3]): time dependent increase in fluorescent signal; fluorescent labeling of purified STAT1 (purified STAT1): non-specific fluorescent labeling of all three STAT isoforms; fluorescent labeling of purified STAT5 (purified STAT5): non-specific fluorescent labeling of all three STAT isoforms"
,,Cc1ccc(S(=O)(=O)OCC(=O)Nc2ccc(C(=O)O)c(O)c2)cc1 [S3I-201],2.735 h⁻¹,0.3657,"cysteine residues of STAT3 covalently modified (LC-MS/MS) [5]: covalently modified Cys108, Cys259, Cys367, Cys542, and Cys687; also recorded: five specific sites of modification, cysteine's 108, 259, 367, 542, and 687; also recorded: Cys residues (418, 426, and 712) were not alkylated; IC50 (activated STAT3 dimer): 86 µM; IC50 (STAT3:DNA binding): ~100 µM"
,,CN(CC(=O)N(Cc1ccc(C2CCCCC2)cc1)c1ccc(C(=O)O)c(O)c1)S(=O)(=O)c1c(F)c(F)c(F)c(F)c1F [BP-1-102],0.5322 h⁻¹,1.879,
negligible reactivity with GSH,5.14,Cc1ccccc1CN(CC(=O)N(Cc1ccc(C2CCCCC2)cc1)c1ccc(C(=O)O)c(O)c1)S(=O)(=O)c1ccc(C(F)(F)F)cc1 [BP-5-087],0.1348 h⁻¹,7.417,
,,Cc1ccc(S(=O)(=O)NCC(=O)N(Cc2cn(CCOCCOCCOCCNS(=O)(=O)c3cccc4c(N(C)C)cccc34)nn2)c2ccc(C(=O)O)c(O)c2)cc1 [4b],,,"fluorescent labeling of protein content of cell lysates, O-tosyl vs sulfonamide probe (MDA-MB-231 cell lysates): no observable fluorescent enhancement"
no reactivity toward GSH,25400,Cc1ccc(S(=O)(=O)NCC(=O)Nc2ccc(C(=O)O)c(O)c2)cc1 [DB-5-112],2.725e-05 h⁻¹,36701,
,,CN(CC(=O)N(Cc1ccc(C2CCCCC2)cc1)c1ccc(C(=O)O)cc1)S(=O)(=O)c1c(F)c(F)c(F)c(F)c1F [SH-4-054],0.5147 h⁻¹,1.943,
negligible reactivity with GSH,~0.0409,Cc1ccc(S(=O)(=O)N(C)CC(=O)N(Cc2ccc(C3CCCCC3)cc2)c2ccc(C(=O)O)c(O)c2)cc1 [SF-1-066],~ 16.95 h^−1,~ 0.05898,
,,C[C@@H]1C=C2C(=O)O[C@@H]3CC[C@H](C1)[C@]23O [Galiellalactone],,,"cysteine residues of STAT3 covalently modified (MS/MS analysis) (STAT3): covalently modified three cysteine residues (367, 468, and 542)"
